Test results published in patent publication US20220305121A1, “N-ARYL SULFONAMIDE DERIVATIVES AS VACCINE ADJUVANT” (The Regents of the University of California, priority 2019, published 2022).
“Also recorded” adds a separate entry of the source.

Experiments:
Type in all cases: cell-based
NF-κB = test: Measurement of NF-κB activation using THP1-Blue NF-κB cells (SEAP reporter, LPS as primary stimulus); conditions: compound 5 μM + LPS, 20 hour incubation; two point normalized: compound 1 + LPS = 200%, LPS = 100%; mean
Description: (§1) THP1-Blue™ NF-κB cells were plated in 96-well plates at 10^5 cells/well in 100 μl RPMI supplemented with 10% fetal bovine serum (FBS, Omega Scientific, Inc., Tarzana, Calif.), 100 U/mL penicillin, 100 μg/ml streptomycin (Thermo Fisher Scientific) and Normocin (Invivogen). LPS was prepared in assay medium at a concentration of 20 μg/mL. Tested compounds were dissolved in DMSO at 1 mM as a stock solution and were further diluted in the LPS solution to a final concentration of 10 μM. 100 μL of this solution was then transferred to the plated cells to obtain a final concentration of LPS at 10 μg/mL and compound at 5 μM ([…]). The culture supernatants were harvested after a 20 hour incubation period, SEAP activity in the culture supernatants was determined by a colorimetric assay using QuantiBlue (Invivogen). Plate absorbance was read at 630 nm using a Tecan Infinite M200 plate reader (Männedorf, Switzerland). The SEAP concentration was directly proportional to NF-κB activity, which was 2-point normalized to yield activity of compound 1+LPS as 200% and activity for LPS as 100%.
(§2) Measurement of NF-κB Activation Using THP1-Blue NF-κB Cells. THP1-Blue NF-κB cells were plated in 96-well plates at 10^5 cells/well in 100 μL of RPMI supplemented with 10% fetal bovine serum (FBS, Omega Scientific, Inc., Tarzana, Calif.), 100 U/mL penicillin, 100 μg/mL streptomycin (Thermo Fisher Scientific), and Normocin (Invivogen). LPS was prepared in assay medium at a concentration of 20 μg/mL. Tested compounds were dissolved in DMSO at 1 mM as a stock solution and were further diluted in the LPS solution to a final concentration of 10 μM. 100 μL of this solution was then transferred to the plated cells to obtain a final concentration of LPS at 10 μg/mL and compound at 5 μM ([…]). The culture supernatants were harvested after a 20 hours incubation period. SEAP activity in the culture supernatants was determined by a colorimetric assay using QuantiBlue (Invivogen). Plate absorbance was read at 630 nm using a Tecan Infinite M200 plate reader (Mannedorf, Switzerland). The SEAP concentration was directly proportional to NF-κB activity, which was two-point normalized to yield activity of compound 1+LPS as 200% and activity for LPS as 100%.

ISRE = test: Measurement of ISRE activity in ISRE-bla THP-1 cells (FRET, IFN-α as primary stimulus); conditions: compound 5 μM + IFN-α 100 U/mL, 16 hours, two point normalized: compound 1 + IFN-α = 200%, IFN-α = 100%, mean; for activity at 5 µM: Homo sapiens, THP-1, read-out: ISRE % Activation
Description: (§3) ISRE-bla THP-1 cells were plated in 96-well plates at 5×10^4 cells/well in 50 μl RPMI supplemented with 10% dialyzed FBS (Atlanta Biologicals, Inc., GA), 0.1 mM nonessential amino acids, 1 mM sodium pyruvate, 100 U/mL penicillin and 100 μg/ml streptomycin. Type I IFN-α (R&D Systems, #11200-2) solution was prepared in assay medium at a concentration of 200 U/mL Tested compounds were dissolved in DMSO at 1 mM and were further diluted in the IFN-α solution to a final concentration of 10 μM. 50 μL of this solution was then transferred to the plated cells to obtain a final concentration of IFN-α at 100 U/mL and compound at 5 μM ([…]), The cells were incubated for 16 hours, after which 20 μL of 6×LiveBLAzer™ FRET B/G Substrate (CCF4-AM) mixture (prepared according to the manufacturer's instructions) was added to each well, Plates were incubated at room temperature in the dark for 3 hours. Fluorescence was measured on a Tecan Infinite M200 plate reader at an excitation wavelength of 405 nm, and emission wavelengths of 465 nm and 535 nm. Background values (cell free wells at the same fluorescence wavelength) were subtracted from the raw fluorescence intensity values and the emission ratios were calculated as the ratio of background subtracted fluorescence intensities at 465 nm to background subtracted fluorescence intensities at 535 nm. The ISRE activity values for these compounds were 2-point normalized to yield activity of compound 1+IFN-α as 200% and activity for IFN-α as 100%.
Measurement of ISRE Activity in ISRE-bla THP-1 Cells. ISREbla THP-1 cells were plated in 96-well plates at 5×10^4 cells/well in 50 μL of RPMI supplemented with 10% dialyzed FBS (Atlanta Biologicals, Inc., GA), 0.1 mM nonessential amino acids, 1 mM sodium pyruvate, 100 U/mL penicillin, and 100 μg/mL streptomycin. Type I IFN-α (R&D Systems, no. 11200-2) solution was prepared in assay medium at a concentration of 200 U/mL. Tested compounds were dissolved in DMSO at 1 mM and were further diluted in the IFN-α solution to a final concentration of 10 μM. 50 μL of this solution was then transferred to the plated cells to obtain a final concentration of IFN-α at 100 U/mL and compound at 5 μM ([…]). The cells were incubated for 16 hours, after which 20 μL of 6×LiveBLAzer FRET B/G substrate (CCF4-AM) mixture (prepared according to the manufacturer's instructions) was added to each well. Plates were incubated at room temperature in the dark for 3 hours. Fluorescence was measured on a Tecan Infinite M200 plate reader at an excitation wavelength of 405 nm and emission wavelengths of 465 and 535 nm. Background values (cell free wells at the same fluorescence wavelength) were subtracted from the raw fluorescence intensity values and the emission ratios were calculated as the ratio of background subtracted fluorescence intensities at 465 nm to background subtracted fluorescence intensities at 535 nm. The ISRE activity values for these compounds were two-point normalized to yield activity of compound 1+IFN-α as 200% and activity for IFN-α as 100%.

THP-1 cells = test: Cell viability assay (MTT); conditions: compound 5 μM, 18 hours incubation; normalized to DMSO as 100%; mean
Description: THP-1 cells were plated in 96-well plates (10^5 cells/well) in 100 μL RPMI supplemented with 10% FBS, 100 U/mL penicillin and 100 μg/ml streptomycin. Compounds were dissolved in DMSO at 1 mM stock solution and were further diluted to 10 μM in the assay medium. 100 μL of this solution was added to the cells to obtain a final compound concentration of 5 μM ([…]). After 18 hours incubation, a solution of MTT in assay media (0.5 mg/mL) was added to each well and further incubated for 4 to 6 hours, followed by addition of cell lysis buffer (15% w/v SDS and 0.12% v/v 12N HCl aqueous solution), incubated overnight, and then absorbance measured at 570 nm using 650 nm as reference using Tecan Infinite M200 plate reader.
Cell Viability Assay. THP-1 cells were plated in 96-well plates (10^5 cells/well) in 100 μL RPMI supplemented with 10% FBS, 100 U/mL penicillin, and 100 μg/mL streptomycin. Compounds were dissolved in DMSO at 1 mM stock solution and were further diluted to 10 μM in the assay medium. 100 μL of this solution was added to the cells to obtain a final compound concentration of 5 μM ([…]). After 18 h incubation, a solution of MTT in assay media (0.5 mg/mL) was added to each well and further incubated for 4-6 hours, followed by addition of cell lysis buffer (15% w/v SDS and 0.12% v/v 12 N HCl aqueous solution), incubation overnight, and then absorbance was measured at 570 nm using 650 nm as reference using Tecan Infinite M200 plate reader.

NF-κB and ISRE = NF-κB and ISRE reporter assays (primary screens), statements in words for both assays; conditions: with LPS or IFN-α as primary stimulus; compared to compound 1
Description: as §1, §3, §2
Measurement of ISRE Activity in ISRE-bla THP-1 Cells. […]

## CCOc1ccc(S(=O)(=O)Nc2ccc(Cl)c(OC)c2)cc1 [Compound 4, N-(4-chloro-3-methoxyphenyl)-4-ethoxybenzenesulfonamide]
NF-κB
  activity at 5 µM: 126%
ISRE
  activity at 5 µM: 99%
THP-1 cells
  MTT % Viability: 83.7%
NF-κB and ISRE
  activity in NF-κB and ISRE assays (in words): complete loss of activity; also recorded: significant loss of activity

## CCOc1ccc(S(=O)(=O)Nc2ccc(Cl)cc2OC)cc1 [Compound 5, N-(4-chloro-2-methoxyphenyl)-4-ethoxybenzenesulfonamide]
NF-κB
  activity at 5 µM: 141%
ISRE
  activity at 5 µM: 109%
THP-1 cells
  MTT % Viability: 78.3%
NF-κB and ISRE
  activity in NF-κB and ISRE assays (in words): complete loss of activity; also recorded: significant loss of activity

## CCOc1ccc(S(=O)(=O)Nc2cc(OC)ccc2OC)cc1 [Compound 6, N-(2,5-dimethoxyphenyl)-4-ethoxybenzenesulfonamide]
NF-κB
  activity at 5 µM: 116%
ISRE
  activity at 5 µM: 96%
THP-1 cells
  MTT % Viability: 73.1%
NF-κB and ISRE
  activity in NF-κB and ISRE assays (in words): retained activity

## COc1cc(NS(=O)(=O)c2ccc(C(=O)O)cc2)c(OC)cc1Cl [Compound 28, 4-(N-(4-chloro-2,5-dimethoxyphenyl)sulfamoyl)benzoic acid]
THP-1 cells
  MTT % Viability: 98.2%
NF-κB and ISRE
  activity in NF-κB and ISRE assays (in words): lost activity

## CCOc1ccc(NS(=O)(=O)c2cc(OC)c(Cl)cc2OC)cc1 [Compound 31, 4-Chloro-N-(4-ethoxyphenyl)-2,5-dimethoxybenzenesulfonamide]
NF-κB and ISRE
  activity in NF-κB and ISRE assays (in words): inactivity

## CCCCCCCCCCCCN(c1cc(OC)c(Cl)cc1OC)S(=O)(=O)c1ccc(OCC)cc1 [Compound 39, N-(4-chloro-2,5-dimethoxyphenyl)-4-ethoxy-N-dodecylbenzenesulfonamide]
NF-κB
  activity at 5 µM: 97%
ISRE
  activity at 5 µM: 100%
THP-1 cells
  MTT % Viability: 93.0%

## C#CCN(c1cc(OC)c(Cl)cc1OC)S(=O)(=O)c1ccc(OCC)cc1 [Compound 42, N-(4-chloro-2,5-dimethoxyphenyl)-4-ethoxy-N-(prop-2-yn-1-yl) benzenesulfonamide]
NF-κB
  NF-κB % Activation: 232%
ISRE
  ISRE % Activation: 213%
THP-1 cells
  MTT % Viability: 72.0%

## C#CCCN(c1cc(OC)c(Cl)cc1OC)S(=O)(=O)c1ccc(OCC)cc1 [Compound 43, N-(but-3-yn-1-yl)-N-(4-chloro-2,5-dimethoxyphenyl)-4-ethoxybenzenesulfonamide]
NF-κB
  activity at 5 µM: 206%
ISRE
  activity at 5 µM: 201%
THP-1 cells
  MTT % Viability: 70.1%

## C#CCCCN(c1cc(OC)c(Cl)cc1OC)S(=O)(=O)c1ccc(OCC)cc1 [Compound 44, N-(4-chloro-2,5-dimethoxyphenyl)-4-ethoxy-N-(pent-4-yn-1-yl) benzenesulfonamide]
NF-κB
  NF-κB % Activation: 182%
ISRE
  ISRE % Activation: 184%
THP-1 cells
  MTT % Viability: 70.7%

## CCOC(=O)CCCN(c1cc(OC)c(Cl)cc1OC)S(=O)(=O)c1ccc(OCC)cc1 [Compound 50, Ethyl 4-((N-(4-chloro-2,5-dimethoxyphenyl)-4-ethoxyphenyl)sulfonamido)butanoate]
NF-κB
  activity at 5 µM: 199%
ISRE
  activity at 5 µM: 199%
THP-1 cells
  MTT % Viability: 80.1%

## CCOc1ccc(S(=O)(=O)N(CCCC(=O)O)c2cc(OC)c(Cl)cc2OC)cc1 [Compound 53, 4-((N-(4-chloro-2,5-dimethoxyphenyl)-4-ethoxyphenyl)sulfonamido)butanoic acid]
NF-κB
  activity at 5 µM: 230%
ISRE
  activity at 5 µM: 151%
THP-1 cells
  MTT % Viability: 73.4%

## CCOc1ccc(S(=O)(=O)Nc2cc(OC)c(N=[N+]=[N-])cc2OC)cc1 [Compound 59, N-(4-azido-2,5-dimethoxyphenyl)-4-ethoxybenzenesulfonamide]
THP-1 cells
  MTT % Viability: 76.6%
NF-κB and ISRE
  activity in NF-κB and ISRE assays (in words): potent

## COc1ccc(S(=O)(=O)Nc2cc(OC)c(Cl)cc2OC)cc1N [Compound 60, 3-Amino-N-(4-chloro-2,5-dimethoxyphenyl)-4-methoxybenzenesulfonamide]
THP-1 cells
  MTT % Viability: 77.3%
NF-κB and ISRE
  activity in NF-κB and ISRE assays (in words): resurgence of activity

## COc1cc(NS(=O)(=O)c2ccc(OC)c(N=[N+]=[N-])c2)c(OC)cc1Cl [Compound 61, 3-Azido-N-(4-chloro-2,5-dimethoxyphenyl)-4-methoxybenzenesulfonamide]
THP-1 cells
  MTT % Viability: 87.2%
NF-κB and ISRE
  activity in NF-κB and ISRE assays (in words): inactive
